Experimental data as given in patent US8324264B1, “Inhibitors of bacterial biofilms and related methods” (Sequoia Sciences, Inc., priority 2011, dated 2012).
In brackets after ≈: the same amount, converted by molar mass.

Experiments:
P. aeruginosa biofilms = assay: Biofilm growth assay (spreading biofilm on semi-solid agar), P. aeruginosa; type: cell-based; conditions: biofilm growth assay, overnight 37° C., vs negative controls, Tables 1-5; for IC85: Pseudomonas aeruginosa, read-out: P. aeruginosa: concentration that reduces the area of the spreading biofilm by greater than or equal to 85%
Summary of the method: (§1)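 Values are compound concentrations (μg/ml) that cut the spreading-biofilm zone area by ≥85% relative to negative controls after overnight 37 °C growth from 5 μL central inoculum. E. coli plates: LB, 0.6% agar, 0.5% glucose; P. aeruginosa plates: M8 agar plus 0.2% glucose, 100 μM CaCl2, 1 mM MgSO4, 0.5% Casamino acids.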

E. coli biofilms = assay: Biofilm growth assay (spreading biofilm on semi-solid agar), E. coli; type: cell-based; conditions: biofilm growth assay, overnight 37° C., vs negative controls, Tables 1-5; for IC85: Escherichia coli, read-out: E. coli: concentration that reduces the area of the spreading biofilm by greater than or equal to 85%
Summary of the method: as §1

Compound	P. aeruginosa: concentration that reduces the area of the spreading biofilm by greater than or equal to 85% (P. aeruginosa biofilms) [µg/mL]	E. coli: concentration that reduces the area of the spreading biofilm by greater than or equal to 85% (E. coli biofilms) [µg/mL]	IC85 (P. aeruginosa biofilms) [µg/mL]	IC85 (E. coli biofilms) [µg/mL]
CC1(C)CC[C@]2(C(=O)O)CC[C@]3(C)C(=C(c4ccc(N5CCOCC5)nc4)CC4[C@@]5(C)Cc6c(n[nH]c6N)C(C)(C)[C@@H]5CC[C@]43C)[C@@H]2C1 (stereo partly drawn) [Example 54, (4aS,6aS,6bR,8aR,13aR,15bS)-12-Amino-2,2,6a,6b,9,9,13a-heptamethyl-15-(6-morpholinopyridin-3-yl)-2,3,4,4a,5,6,6a,6b,7,8,8a,9,11,13,13a,13b,14,15b-octadecahydro-1H-chryseno[1,2-f]indazole-4-a-carboxylic acid]	1	2	–	–
CC1(C)CC[C@]2(C(=O)O)CC[C@]3(C)C(=C(Cl)CC4[C@@]5(C)Cc6c(n[nH]c6N)C(C)(C)C5CC[C@]43C)C2C1 (stereo partly drawn) [Example 24, (4aS,6aS,6bR,13aR)-12-Amino-15-chloro-2,2,6a,6b,9,9,13a-heptamethyl-2,3,4,4a,5,6,6a,6b,7,8,8a,9,11,13,13a,13b,14,15b-octadecahydro-1H-chryseno[1,2-f]indazole-4-a-carboxylic acid]	–	–	0.5 (≈ 0.947 µM)	1 (≈ 1.89 µM)
C=C(C)[C@@H]1CC[C@]2(C(=O)O)CC[C@]3(C)[C@H](CC[C@@H]4[C@@]5(C)CC[C@H](O)C(C)(C)[C@@H]5CC[C@]43C)[C@@H]12 [Betulinic acid, reference compound]	–	–	> 16	> 16
C[C@H]1[C@H](C)CC[C@]2(CO)CC[C@]3(C)C(=CC[C@@H]4[C@@]5(C)CC[C@H](O)C(C)(C)[C@@H]5CC[C@]43C)[C@H]12 [Uvaol, reference compound]	–	–	> 128	> 8
Lupeol [reference compound]	>16	>8	–	–
COc1ccc(C2=C3[C@@H]4CC(C)(C)CC[C@]4(C(=O)O)CC[C@@]3(C)[C@]3(C)CC[C@H]4C(C)(C)c5n[nH]c(N)c5C[C@]4(C)C3C2)cn1 (stereo partly drawn) [Example 42, (4aS,6aS,6bR,8aR,13aR,15bS)-12-Amino-15-(6-methoxypyridin-3-yl)-2,2,6a,6b,9,9,13a-heptamethyl-2,3,4,4a,5,6,6a,6b,7,8,8a,9,11,13,13a,13b,14,15b-octadecahydro-1H-chryseno[1,2-f]indazole-4-a-carboxylic acid]	0.25	1	–	–
Cn1cc2c(n1)C(C)(C)C1CC[C@]3(C)C(CC=C4C5CC(C)(C)CC[C@]5(C(=O)O)CC[C@]43C)[C@@]1(C)C2 (stereo partly drawn) [E]	–	–	2 (≈ 4.06 µM)	> 16
CC1(C)CC[C@]2(C(=O)O)CC[C@]3(C)C(=C(c4ccco4)CC4[C@@]5(C)Cc6c(n[nH]c6N)C(C)(C)[C@@H]5CC[C@]43C)[C@@H]2C1 (stereo partly drawn) [Example 7, (4aS,6aS,6bR,13aR)-12-Amino-15-(furan-2-yl)-2,2,6a,6b,9,9,13a-heptamethyl-2,3,4,4a,5,6,6a,6b,7,8,8a,9,11,13,13a,13b,14,15b-octadecahydro-1H-chryseno[1,2-f]indazole-4-a-carboxylic acid]	–	–	0.25 (≈ 0.447 µM)	1 (≈ 1.79 µM)
CC1(C)CC[C@]2(C(=O)O)CC[C@]3(C)C(=C(Br)CC4[C@@]5(C)Cc6c(n[nH]c6N)C(C)(C)[C@@H]5CC[C@]43C)[C@@H]2C1 (stereo partly drawn) [Example 25, (4aS,6aS,6bR,8aR,13aR,15bR)-12-Amino-15-bromo-2,2,6a,6b,9,9,13a-heptamethyl-2,3,4,4a,5,6,6a,6b,7,8,8a,9,11,13,13a,13b,14,15b-octadecahydro-1H-chryseno[1,2-f]indazole-4-a-carboxylic acid]	0.5	>2	–	–
CN(C)CCc1c([C@]23CCC(C)(C)CC2C2=CCC4[C@@]5(C)Cc6c(n[nH]c6N)C(C)(C)C5CC[C@@]4(C)[C@]2(C)CC3)n[nH]c1O (stereo partly drawn) [Compound 85, 3-((4aS,6aS,6bR,13aR)-12-Amino-2,2,6a,6b,9,9,13a-heptamethyl-2,3,4,4a,5,6,6a,6b,7,8,8a,9,11,13,13a,13b,14,15b-octadecahydro-1H-chryseno[1,2-f]indazol-4-a-yl)-4-(2-(dimethylamino)ethyl)-1H-pyrazol-5-ol]	0.5	1	–	–
CN1CCN(Cc2occc2C2=C3[C@@H]4CC(C)(C)CC[C@]4(C(=O)O)CC[C@@]3(C)[C@]3(C)CC[C@H]4C(C)(C)c5n[nH]c(N)c5C[C@]4(C)C3C2)CC1 (stereo partly drawn) [Example 36, (4aS,6aS,6bR,8aR,13aR,15bS)-12-Amino-2,2,6a,6b,9,9,13a-heptamethyl-15-(2-((4-methylpiperazin-1-yl)methyl)furan-3-yl)-2,3,4,4a,5,6,6a,6b,7,8,8a,9,11,13,13a,13b,14,15b-octadecahydro-1H-chryseno[1,2-f]indazole-4-a-carboxylic acid]	>1	2	–	–
CC1(C)CC[C@]2(C(=O)O)CC[C@]3(C)C(=C(c4cccc(C(N)=O)c4)CC4[C@@]5(C)Cc6c(n[nH]c6N)C(C)(C)C5CC[C@]43C)C2C1 (stereo partly drawn) [Example 19, (4aS,6aS,6bR,13aR)-12-Amino-15-(3-carbamoylphenyl)-2,2,6a,6b,9,9,13a-heptamethyl-2,3,4,4a,5,6,6a,6b,7,8,8a,9,11,13,13a,13b,14,15b-octadecahydro-1H-chryseno[1,2-f]indazole-4-a-carboxylic acid]	1	1	–	–
CC1(C)CC[C@]2(C(=O)n3ccnc3N)CC[C@]3(C)C(=CCC4[C@@]5(C)Cc6c(n[nH]c6N)C(C)(C)C5CC[C@]43C)C2C1 (stereo partly drawn) [Compound 73, (2-Amino-1H-imidazol-1-yl)((4aS,6aS,6bR,13aR)-12-amino-2,2,6a,6b,9,9,13a-heptamethyl-2,3,4,4a,5,6,6a,6b,7,8,8a,9,11,13,13a,13b,14,15b-octadecahydro-1H-chryseno[1,2-f]indazol-4-a-yl)methanone]	–	–	1 (≈ 1.79 µM)	1 (≈ 1.79 µM)
CC1(C)CC[C@]2(C(=O)O)CC[C@]3(C)C(=C(c4cccc5[nH]ccc45)CC4[C@@]5(C)Cc6c(n[nH]c6N)C(C)(C)C5CC[C@]43C)C2C1 (stereo partly drawn) [Example 48, (4aS,6aS,6bR,13aR)-12-Amino-15-(1H-indol-4-yl)-2,2,6a,6b,9,9,13a-heptamethyl-2,3,4,4a,5,6,6a,6b,7,8,8a,9,11,13,13a,13b,14,15b-octadecahydro-1H-chryseno[1,2-f]indazole-4-a-carboxylic acid]	0.5	1	–	–
CN1CCN(c2c([C@]34CCC(C)(C)CC3C3=CCC5[C@@]6(C)Cc7c(n[nH]c7N)C(C)(C)C6CC[C@@]5(C)[C@]3(C)CC4)n[nH]c2O)CC1 (stereo partly drawn) [Compound 89, 3-((4aS,6aS,6bR,13aR)-12-Amino-2,2,6a,6b,9,9,13a-heptamethyl-2,3,4,4a,5,6,6a,6b,7,8,8a,9,11,13,13a,13b,14,15b-octadecahydro-1H-chryseno[1,2-f]indazol-4-a-yl)-4-(4-methylpiperazin-1-yl)-1H-pyrazol-5-ol]	1	1	–	–
